Reference: US20260137700A1, “PHARMACEUTICAL COMBINATION OF PRMT5 INHIBITOR AND DNA DAMAGE-INDUCING SUBSTANCE” (SK Biopharmaceuticals Co., Ltd., priority 2022, published 2026)

What was measured:
[1] = tested on: human pancreatic cancer cells CAPAN-1; assay: Subcutaneous xenograft mouse model of CAPAN-1 pancreatic cancer cells, tumor volume; type: in vivo; settings: Day 31, solvent group 1,017 mm^3
Procedure: For in vivo efficacy studies in a subcutaneous xenograft mouse model of human pancreatic cancer cells CAPAN-1, co-administration of compound-87 as a PRMT5 inhibitor according to one example of the present invention and Gemcitabine as an anti-metabolite of a chemotherapeutic agent, was performed.
To produce a pancreatic cancer xenograft model, 5 million CAPAN-1 cells were injected subcutaneously into the right flank of female nude mice, and tumor growth was monitored.
To evaluate the anticancer effect, when the tumor volume reached approximately 185 mm^3 on average, the mice were divided into six groups. The all group included the solvent-treated group (vehicle group), the compound-87 monotherapy group (25 mg/kg or 50 mg/kg), the gemcitabine monotherapy group (50 mg/kg), combination therapy group of the compound-87 (25 mg/kg or 50 mg/kg), and the gemcitabine. The vehicle A group or the compound-87 treatment group was administered orally on a 3-day administration/4-day non-administration schedule, and the vehicle B group or the gemcitabine treatment group was administered intraperitoneally twice a week.

[2] = tested on: human pancreatic cancer cells Mia PaCa-2; assay: Subcutaneous xenograft mouse model of Mia PaCa-2 pancreatic cancer cells, tumor growth inhibition; type: in vivo; settings: day 24
Procedure: For in vivo efficacy study in a subcutaneous xenograft mouse model of human pancreatic cancer cells Mia PaCa-2, co-administration of compound-87 as a PRMT5 inhibitor according to an example of the present invention and Gemcitabine as an anti-metabolite of a chemotherapeutic agent, was performed. To produce a pancreatic cancer xenograft model, 5 million Mia PaCa-2 cells were injected subcutaneously into the right flank of female nude mice, and tumor growth was monitored.
To evaluate the anticancer effect, mice were divided into six groups when the tumor volume reached approximately 150 mm^3 on average. […] The solvent-treated group (vehicle group) or the compound-87 treatment group was administered orally on a 3-day administration/4-day non-administration schedule, and gemcitabine was administered intraperitoneally twice a week for 24 days (Day 0-Day 23). All mice were euthanized on Day 24, 24 hours after the last administration.

[3] = tested on: symmetric dimethyl arginine (SDMA); assay: In vivo target inhibition: SDMA ELISA in tumor samples of the Mia PaCa-2 xenograft mouse model
Procedure: Quantitative reduction levels of symmetric dimethyl arginine (SDMA) in tumor samples harvested from a subcutaneous xenograft mouse model of Mia PaCa-2 were measured by enzyme-linked immunosorbent assay (ELISA).
Reagents: Bradford solution (catalog no. 500-0006) was purchased from Bio-rad (USA). SDMA antibody (catalog no. 13222s) was purchased from Cell signaling Technology (USA). SmD3 antibody (catalog no. ap12451a) was purchased from Abgent (USA). Secondary antibody (catalog no. ab6721) and TMB substrate (catalog no. ab210902) were purchased from Abcam (UK).
Experimental procedure: Tumor tissue transplanted into mice was extracted, cells were lysed, and quantified with Bradford solution. […] of protein per sample was diluted with carbonate-bicarbonate buffer, dispensed into a 96-well plate, and reacted at room temperature for 2 hours. After washing three times with phosphate-buffered saline (PBST) containing 0.05% Tween-20, 200 μL of PBST containing 5% bovine serum albumin (BSA) (BSA-PBST) was added, and reacted at room temperature for 2 hours. After washing three times with PBST, 100 μL of SDMA antibody and SmD3 antibody were diluted in BSA-PBST, each was dispensed, and reacted overnight at 4° C. After washing three times with PBST on next day, 100 μL of secondary antibody diluted in BSA-PBST was added, and reacted at room temperature for 1 hour. After washing three times with PBST, 100 μL of TMB substrate was added and reacted at room temperature for 10-20 minutes, and 100 μL of 1N sulfuric acid solution was added to terminate the reaction. Then, the degree of SDMA inhibition by the compound was calculated by measuring the absorbance at 450 nm.

SMILES: CN1CCC(Oc2ccc3c(c2)OCCN(C[C@H](O)CN2CCc4ccccc4C2)C3=O)CC1 [Compound-87, 4-[(2R)-3-(3,4-dihydro-1H-isoquinolin-2-yl)-2-hydroxy-propyl]-8-[(1-methyl-4-piperidyl)oxy]-2,3-dihydro-1,4-benzoxazepin-5-one]
- tumor volume ([1]; Compound-87 25 mg/kg oral (3 days on/4 off) in combination with gemcitabine 50 mg/kg i.p. twice a week): 379 mm^3
- tumor volume ([1]; Compound-87 50 mg/kg oral (3 days on/4 off) in combination with gemcitabine 50 mg/kg i.p. twice a week): 235 mm^3
- tumor growth inhibition rate ([2]; compound-87 25 mg/kg combined with gemcitabine 60 mg/kg i.p. twice a week): 67.7%
- tumor growth inhibition rate ([2]; compound-87 25 mg/kg monotherapy, oral, 3 days on/4 off): 42.6%
- tumor growth inhibition rate ([2]; compound-87 50 mg/kg combined with gemcitabine 60 mg/kg i.p. twice a week): 77.0%
- tumor growth inhibition rate ([2]; compound-87 50 mg/kg monotherapy, oral, 3 days on/4 off): 56.0%
- SDMA amount in tumor samples compared to the vehicle group ([3]; 25 mg/kg Compound-87, 3 days on/4 off for 24 days): 37.4%
- SDMA amount in tumor samples compared to the vehicle group ([3]; 50 mg/kg Compound-87, 3 days on/4 off for 24 days): 27.7%
- inhibition at 25 mg/kg ([3]; Mus musculus, MIA PaCa-2, 25 mg/kg Compound-87, 3 days on/4 off for 24 days): 62.6%
- inhibition at 50 mg/kg ([3]; Mus musculus, MIA PaCa-2, 50 mg/kg Compound-87, 3 days on/4 off for 24 days): 72.3%
